Assay results reported in patent publication US20250197389A1, “NITROGEN-CONTAINING HETEROCYCLIC COMPOUND” (SHANGHAI SHIJIANG BIOTECHNOLOGY CO., LTD, priority 2022, published 2025).

How the values were obtained:
[1] = system: mPTP-active Daoy cell; assay: Inhibitory effect on mPTP-active Daoy cell (Promega CellTiter-Glo, intracellular ATP); assay type: cell-based, human; settings: Daoy cell transfected with empty virus vector without PPIF shRNA
[2] = system: mPTP-inactive Daoy cell; assay: Inhibitory effect on mPTP-inactive Daoy cell (PPIF shRNA; Promega CellTiter-Glo, intracellular ATP); assay type: cell-based, human; settings: Daoy cell transfected with virus vector carrying PPIF shRNA
Excerpt: The activity of mitochondria permeability transition pore (mPTP) was regulated by the PPIF protein. […] PPIF protein activity was restricted by the expression level of PPIF protein in cell.

Row | Compound | IC50 ([1]; Homo sapiens, Daoy) | IC50 ([2]; Homo sapiens, Daoy) | IC50 [1] | IC50 [2]
1 | COc1ccc2c(c1OC)C(C1CCCC1)N1CCc3cc4c(cc3C1C2)OCO4 (stereo not shown) [AB36497] | 67.4 µM | 69 µM | – | –
2 | COc1ccc2c(c1OCCCBr)C(C)N1CCc3cc4c(cc3C1=C2)OCO4 (stereo not shown) [AB31887] | 6.47 µM | 3.17 µM | – | –
3 | CCCCCOc1c(OC)ccc2c1C(C(Cl)(Cl)Cl)N1CCc3cc4c(cc3C1=C2)OCO4 (stereo not shown) [AB35505] | 1.24 µM | 0.42 µM | – | –
4 | CCCCCC1=C2c3cc4c(cc3CCN2C(C)c2c1ccc(OC)c2OC)OCO4 (stereo not shown) [AB35422] | 5.27 µM | 2.59 µM | – | –
5 | COc1ccc2c(c1OCCBr)CN1CCc3cc4c(cc3C1=C2)OCO4 [AB36403] | 1.66 µM | 0.54 µM | – | –
6 | COc1ccc2c(c1OCCCF)C(C(Cl)(Cl)Cl)N1CCc3cc4c(cc3C1=C2)OCO4 (stereo not shown) [AB35478] | 3.78 µM | 1.51 µM | – | –
7 | CCCC1c2c(ccc3c2OCO3)C=C2c3cc4c(cc3CCN21)OCO4 (stereo not shown) [AB36416] | 3.78 µM | 1.44 µM | – | –
8 | CCCC1=C2c3cc4c(cc3CCN2C(C(Cl)(Cl)Cl)c2c1ccc1c2OCO1)OCO4 (stereo not shown) [AB36427] | 11.9 µM | 4.3 µM | – | –
9 | COc1ccc2c(c1OC)C(C1CCCC1)N1CCc3cc4c(cc3C1=C2CCCc1ccccc1)OCO4 (stereo not shown) [AB35436] | 4.8 µM | 2.28 µM | – | –
10 | CCCOc1c(OC)ccc2c1C(C(Cl)(Cl)Cl)N1CCc3cc4c(cc3C1=C2)OCO4 (stereo not shown) [AB35506] | 3.45 µM | 1.49 µM | – | –
11 | COc1ccc2c(c1OC)C(C(Cl)(Cl)Cl)N1CCc3cc4c(cc3C1=C2Cc1ccccn1)OCO4 (stereo not shown) [AB35447] | 22.9 µM | 25.7 µM | – | –
12 | COc1ccc2c(c1OCCCCCCBr)C(C1CCCC1)N1CCc3cc4c(cc3C1=C2)OCO4 (stereo not shown) [AB35458] | 3.85 µM | 1.84 µM | – | –
13 | CCCCC1=C2c3cc4c(cc3CCN2C(C(Cl)(Cl)Cl)c2c1ccc(OC)c2OC)OCO4 (stereo not shown) [AB35502] | 6.14 µM | 2.97 µM | – | –
14 | COc1ccc2c(c1OCCCBr)C(C(Cl)(Cl)Cl)N1CCc3cc4c(cc3C1=C2)OCO4 (stereo not shown) [AB35466] | 2.21 µM | 0.91 µM | – | –
15 | COc1ccc2c(c1OC)C(CC(C)=O)N1CCc3cc4c(cc3C1=C2)OCO4 (stereo not shown) [AB36472] | 15.8 µM | 15.9 µM | – | –
16 | COc1ccc2c(c1OC)C(C1CCCC1)N1CCc3cc4c(cc3C1=C2CCc1ccccc1)OCO4 (stereo not shown) [AB35448] | 3.53 µM | 1.72 µM | – | –
17 | COc1ccc2c(c1OCCCCl)C(C1CCC1)N1CCc3cc4c(cc3C1=C2)OCO4 (stereo not shown) [AB35490] | 10.6 µM | 3.76 µM | – | –
18 | COc1ccc2c(c1OCCCN1CCCCC1)C(C)N1CCc3cc4c(cc3C1=C2)OCO4 (stereo not shown) [AB35442] | 10.7 µM | 11.4 µM | – | –
19 | C1=C2c3cc4c(cc3CCN2Cc2cc3c(cc21)OCO3)OCO4 [AB36428] | 0.92 µM | 0.4 µM | – | –
20 | COc1ccc2c(c1OCCCCl)CN1CCc3cc4c(cc3C1=C2)OCO4 [AB35543] | 1.22 µM | 0.44 µM | – | –
21 | C1=C2c3cc4c(cc3CCN2C(C2CCCC2)c2cc3c(cc21)OCO3)OCO4 (stereo not shown) [AB35467] | 16.1 µM | 8.21 µM | – | –
22 | COc1ccc2c(c1OCCN(C)C)C(C(Cl)(Cl)Cl)N1CCc3cc4c(cc3C1=C2)OCO4 (stereo not shown) [AB35446] | 16.2 µM | 17.6 µM | – | –
23 | COc1ccc2c(c1OC(=O)CC13CC4CC(CC(C4)C1)C3)C(C)N1CCc3cc4c(cc3C1=C2)OCO4 (stereo not shown) [AB31896] | 5.02 µM | 2.42 µM | – | –
24 | COc1ccc2c(c1OCCCCl)C(C1CCCC1)N1CCc3cc4c(cc3C1=C2)OCO4 (stereo not shown) [AB35434] | 5.21 µM | 2.48 µM | – | –
25 | CC1c2c(ccc3c2OCO3)C=C2c3cc4c(cc3CCN21)OCO4 (stereo not shown) [AB35413] | 13.3 µM | 6.87 µM | – | –

Row | Compound | IC50 ([1]; Homo sapiens, Daoy) | IC50 ([2]; Homo sapiens, Daoy) | IC50 [1] | IC50 [2]
26 | COc1ccc2c(c1OCCCCCCCl)C(C(Cl)(Cl)Cl)N1CCc3cc4c(cc3C1=C2)OCO4 (stereo not shown) [AB35475] | 2.64 µM | 1.23 µM | – | –
27 | COc1ccc2c(c1OC)C(C)N1CCc3cc4c(cc3C1=C2CCCc1ccccc1)OCO4 (stereo not shown) [AB35411] | – | – | 3.51 µM | 1.78 µM
28 | CCC1=C2c3cc4c(cc3CCN2C(C(Cl)(Cl)Cl)c2c1ccc1c2OCO1)OCO4 (stereo not shown) [AB36426] | 30.9 µM | 35 µM | – | –
29 | COc1ccc2c(c1OCCCCCCNC(=O)OC(C)(C)C)C(C1CCCC1)N1CCc3cc4c(cc3C1=C2)OCO4 (stereo not shown) [AB35455] | 3.51 µM | 1.47 µM | – | –
30 | CCCCCCC1c2c(ccc(OC)c2OC)C=C2c3cc4c(cc3CCN21)OCCO4 (stereo not shown) [AB31880] | 2.93 µM | 1.13 µM | – | –
31 | COc1ccc2c(c1OC/C=C(\C)CCC=C(C)C)C(C)N1CCc3cc4c(cc3C1=C2)OCO4 (stereo not shown) [AB35402] | 1.72 µM | 0.81 µM | – | –
32 | COc1ccc2c(c1N1CCC(C)CC1)CN1CCc3cc4c(cc3C1=C2)OCO4 [AB35545] | 0.53 µM | 0.2 µM | – | –
33 | [2H]C([2H])([2H])Oc1c(OC)ccc2c1C(C1CCCC1)N1CCc3cc4c(cc3C1=C2)OCO4 (stereo not shown) [AB36501] | 12.9 µM | 3.43 µM | – | –
34 | COc1ccc2c(c1OCCCBr)C(C1CCCC1)N1CCc3cc4c(cc3C1=C2)OCO4 (stereo not shown) [AB35430] | 5.07 µM | 2.38 µM | – | –
35 | COc1ccc2c(c1OCCCF)CN1CCc3cc4c(cc3C1=C2)OCO4 [AB35590] | 4.54 µM | 1.41 µM | – | –
36 | COc1ccc2c(c1OCCNC(=O)OC(C)(C)C)C(C(Cl)(Cl)Cl)N1CCc3cc4c(cc3C1=C2)OCO4 (stereo not shown) [AB35416] | 10.6 µM | 5.11 µM | – | –
37 | COc1ccc2c(c1OCCF)CN1CCc3cc4c(cc3C1=C2)OCO4 [AB35599] | 5.41 µM | 2.43 µM | – | –
38 | CCCCN1CCN(c2c(OC)ccc3c2C(C(Cl)(Cl)Cl)N2CCc4cc5c(cc4C2=C3)OCO5)CC1 (stereo not shown) [AB35445] | 12.1 µM | 6.37 µM | – | –
39 | COc1ccc2c(c1OCCCCCCCl)C(C1CCCC1)N1CCc3cc4c(cc3C1=C2)OCO4 (stereo not shown) [AB35440] | 2.36 µM | 1.14 µM | – | –
40 | COc1ccc2c(c1OCCN1CCCCC1)C(C(Cl)(Cl)Cl)N1CCc3cc4c(cc3C1=C2)OCO4 (stereo not shown) [AB35420] | 9.55 µM | 4.59 µM | – | –
41 | COc1ccc2c(c1N1CCCCCC1)CN1CCc3cc4c(cc3C1=C2)OCO4 [AB36493] | 1.34 µM | 0.35 µM | – | –
42 | COc1ccc2c(c1NCCc1ccccc1)C(C(Cl)(Cl)Cl)N1CCc3cc4c(cc3C1=C2)OCO4 (stereo not shown) [AB35486] | 0.71 µM | 0.23 µM | – | –
43 | CCCC1=C2c3cc4c(cc3CCN2C(C2CCCC2)c2c1ccc(OC)c2OC)OCO4 (stereo not shown) [AB35504] | 10.6 µM | 4.25 µM | – | –
44 | COc1ccc2c(c1OCCCc1ccccc1)C(C(Cl)(Cl)Cl)N1CCc3cc4c(cc3C1=C2)OCO4 (stereo not shown) [AB35525] | 2.48 µM | 0.7 µM | – | –
45 | CCCCCCC1c2c(ccc3c2OCO3)C=C2c3cc4c(cc3CCN21)OCO4 (stereo not shown) [AB35426] | 2.71 µM | 1.03 µM | – | –
46 | CCCC1=C2c3cc4c(cc3CCN2C(C(Cl)(Cl)Cl)c2c1ccc(OC)c2OC)OCO4 (stereo not shown) [AB35492] | 3.78 µM | 1.34 µM | – | –
47 | COc1ccc2c(c1OCCCCOc1ccccc1)C(C(Cl)(Cl)Cl)N1CCc3cc4c(cc3C1=C2)OCO4 (stereo not shown) [AB35476] | 2.35 µM | 1.08 µM | – | –
48 | COc1ccc2c(c1OCCCCCCNC(=O)OC(C)(C)C)C(C)N1CCc3cc4c(cc3C1=C2)OCO4 (stereo not shown) [AB35415] | 4.79 µM | 2.26 µM | – | –
49 | COc1ccc2c(c1OCCCCl)C(C)N1CCc3cc4c(cc3C1=C2)OCO4 (stereo not shown) [AB35456] | 5.77 µM | 2.76 µM | – | –
50 | COc1ccc2c(c1NCCc1ccccc1)C(C)N1CCc3cc4c(cc3C1=C2)OCO4 (stereo not shown) [AB31895] | 3.15 µM | 1.46 µM | – | –
